# Laboratory results reported in patent US20030095958A1, “Inhibitors of bace” (priority 2001, published 2003).
# Molecular target: BACE (Homo sapiens, UniProt P56817)
# Assay: Ki Determination for the Inhibition of BACE (FS-1 peptide fluorescence cleavage assay)
# Type: biochemical
# Conditions: apparent Ki; 50 nM BACE, 10 μM FS-1 substrate, 0.1M sodium acetate pH 4.5
# How it was run: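 Human BACE (50 nM) was preincubated 15 min at room temperature with compound (2% DMSO) in 0.1 M sodium acetate pH 4.5, then 10 μM FS-1 peptide was added. Cleavage was followed by fluorescence (ex 355/em 495 nm), and apparent Ki came from fitting to the integrated competitive tight-binding inhibition equation.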
# Sequence of BACE (P56817 46-501): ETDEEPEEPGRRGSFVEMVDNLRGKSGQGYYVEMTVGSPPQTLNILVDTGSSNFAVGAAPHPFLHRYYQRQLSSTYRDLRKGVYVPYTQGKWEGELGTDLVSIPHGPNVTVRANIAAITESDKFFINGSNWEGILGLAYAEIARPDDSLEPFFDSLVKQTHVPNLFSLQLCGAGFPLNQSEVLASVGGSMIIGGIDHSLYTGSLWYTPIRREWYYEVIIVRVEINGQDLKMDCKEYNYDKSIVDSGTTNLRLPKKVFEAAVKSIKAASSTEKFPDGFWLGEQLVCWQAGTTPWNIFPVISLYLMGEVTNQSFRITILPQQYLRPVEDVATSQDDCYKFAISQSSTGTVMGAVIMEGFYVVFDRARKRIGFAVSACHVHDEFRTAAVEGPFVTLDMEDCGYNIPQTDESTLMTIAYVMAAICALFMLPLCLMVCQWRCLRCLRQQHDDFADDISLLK
row,Structure (SMILES),Ki [µM]
1,"N#Cc1ccccc1-c1ccc(COc2ccc3c(c2)c2c(n3Cc3ccc4ccccc4c3)CNCC2)cc1 [Compound 531, 4′-(9-Naphthalen-2-ylmethyl-2,3,4,9-tetrahydro-1H-b-carbolin-6-yloxymethyl)-biphenyl-2-carbonitrile]",< 3
2,"N#Cc1ccccc1-c1ccc(COc2ccc3c(c2)c2c(n3C(=O)c3cccc4ccccc34)CNCC2)cc1 [Compound 532, 4′-[9-(Naphthalene-1-carbonyl)-2,3,4,9-tetrahydro-1H-b-carbolin-6-yloxymethyl]-biphenyl-2-carbonitrile]",< 3
3,"FC(F)(F)c1ccc(COc2ccc3c(c2)c2c(n3Cc3cccc4ccccc34)CNCC2)cc1 [Compound 533, 9-Naphthalen-1-ylmethyl-6-(4-trifluoromethyl-benzyloxy)-2,3,4,9-tetrahydro-1H-b-carboline]",< 3
4,"FC(F)(F)c1ccc(COc2ccc3c(c2)c2c(n3Cc3ccc4ccccc4c3)CNCC2)cc1 [Compound 534, 9-Naphthalen-2-ylmethyl-6-(4-trifluoromethyl-benzyloxy)-2,3,4,9-tetrahydro-1H-b-carboline]",< 3
5,"FC(F)(F)c1ccccc1COc1ccc2c(c1)c1c(n2Cc2ccc3ccccc3c2)CNCC1 [Compound 535, 9-Naphthalen-2-ylmethyl-6-(2-trifluoromethyl-benzyloxy)-2,3,4,9-tetrahydro-1H-b-carboline]",< 3
6,"O=C(c1ccc2ccccc2c1)n1c2c(c3cc(OCc4ccc(C(F)(F)F)cc4)ccc31)CCNC2 [Compound 536, Naphthalen-2-yl-[6-(4-trifluoromethyl-benzyloxy)-1,2,3,4-tetrahydro-b-carbolin-9-yl]-methanone]",< 3
7,"FC(F)(F)c1cccc(COc2ccc3c(c2)c2c(n3Cc3ccc4ccccc4c3)CNCC2)c1 [Compound 537, 9-Naphthalen-2-ylmethyl-6-(3-trifluoromethyl-benzyloxy)-2,3,4,9-tetrahydro-1H-b-carboline]",< 3
